Data: ChEMBL document CHEMBL1201861, “Genomics of Drug Sensitity in Cancer screening data, Wellcome Trust Sanger Institute”

Legend:
Assay in all cases: cells
NOMO-1 = format: functional, cell-based; conditions: Homo sapiens;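 further: growth inhibition of human NOMO-1 cells measured by a cell viability assay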
Description: SANGER: Inhibition of human NOMO-1 cell growth in a cell viability assay.

AM-38 = format: functional, cell-based, Homo sapiens; conditions: Homo sapiens, AM-38;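 further: growth inhibition of AM-38 cells of human origin, read out by a cell viability assay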
Description: SANGER: Inhibition of human AM-38 cell growth in a cell viability assay.

MKN-45 = format: functional, cell-based, Homo sapiens; conditions: Homo sapiens, MKN-45;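 further: growth inhibition of human MKN-45 cells, measured with a cell viability assay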
Description: SANGER: Inhibition of human MKN45 cell growth in a cell viability assay.

KG-1 = format: functional, cell-based; conditions: Homo sapiens;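 further: growth inhibition of KG-1 cells, read out by a cell viability assay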
Description: SANGER: Inhibition of human KG-1 cell growth in a cell viability assay.

Capan-2 = format: functional, cell-based, Homo sapiens; conditions: Homo sapiens, Capan-2;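 further: Capan-2 cell growth inhibition, read out with a viability assay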
Description: SANGER: Inhibition of human Capan-2 cell growth in a cell viability assay.

NCI-H2170 = format: functional, cell-based, Homo sapiens; conditions: Homo sapiens, NCI-H2170;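 further: cell viability assay measuring growth inhibition of human NCI-H2170 cancer cells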
Description: SANGER: Inhibition of human NCI-H2170 cell growth in a cell viability assay.

A 172 = format: functional, cell-based, Homo sapiens; conditions: Homo sapiens, A 172;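 further: growth inhibition of A172 cells, measured with a cell viability readout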
Description: SANGER: Inhibition of human A172 cell growth in a cell viability assay.

KS-1 = format: functional, cell-based, Homo sapiens; conditions: Homo sapiens, KS-1;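 further: growth inhibition of KS-1 cells, read out with a cell viability assay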
Description: SANGER: Inhibition of human KS-1 cell growth in a cell viability assay.

KGN = format: functional, cell-based, Homo sapiens; conditions: Homo sapiens, KGN;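 further: growth inhibition of KGN cells, read out with a cell viability assay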
Description: SANGER: Inhibition of human KGN cell growth in a cell viability assay.

MDA-MB-361 = format: functional, cell-based, Homo sapiens; conditions: Homo sapiens, MDA-MB-361
SAS = format: functional, cell-based, Homo sapiens; conditions: Homo sapiens, SAS;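 further: growth inhibition of SAS cells, read out with a cell viability assay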
Description: SANGER: Inhibition of human SAS cell growth in a cell viability assay.

T47D = format: functional, cell-based, Homo sapiens; conditions: Homo sapiens, T47D;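 further: growth inhibition of human T47D cells, measured with a cell viability assay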
Description: SANGER: Inhibition of human T47D cell growth in a cell viability assay.

SCC-25 = format: functional, cell-based, Homo sapiens; conditions: Homo sapiens, SCC-25;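 further: growth inhibition of SCC-25 cells, measured with a cell viability assay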
Description: SANGER: Inhibition of human SCC-25 cell growth in a cell viability assay.

NKM-1 = format: functional, cell-based; conditions: Homo sapiens;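 further: growth inhibition of NKM-1 cells, read out with a cell viability assay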
Description: SANGER: Inhibition of human NKM-1 cell growth in a cell viability assay.

P12-Ichikawa = format: functional, cell-based; conditions: Homo sapiens
RXF 393 = format: functional, cell-based; conditions: Homo sapiens;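 further: growth inhibition of human RXF 393 cells, read out with a cell viability assay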
Description: SANGER: Inhibition of human RXF393 cell growth in a cell viability assay.

PC-14 = format: functional, cell-based, Homo sapiens; conditions: Homo sapiens, PC-14;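 further: cell viability assay measuring inhibition of PC-14 cell growth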
Description: SANGER: Inhibition of human PC-14 cell growth in a cell viability assay.

RH-1 = format: functional, cell-based, Homo sapiens; conditions: Homo sapiens, RH-1;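 further: growth inhibition of human RH-1 cells, read out with a cell viability assay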
Description: SANGER: Inhibition of human RH-1 cell growth in a cell viability assay.

NCI-H23 = format: functional, cell-based, Homo sapiens; conditions: Homo sapiens, NCI-H23;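 further: cell viability assay measuring growth inhibition of NCI-H23 cells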
Description: SANGER: Inhibition of human NCI-H23 cell growth in a cell viability assay.

ES5 = format: functional, cell-based, Homo sapiens; conditions: Homo sapiens, ES5;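 further: growth inhibition of human ES5 cells, read out by a cell viability assay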
Description: SANGER: Inhibition of human ES5 cell growth in a cell viability assay.

KE-37 = format: functional, cell-based; conditions: Homo sapiens;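 further: growth inhibition of KE-37 cells, read out with a cell viability assay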
Description: SANGER: Inhibition of human KE-37 cell growth in a cell viability assay.

SW780 = format: functional, cell-based, Homo sapiens; conditions: Homo sapiens, SW780;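 further: growth inhibition of the cells, read out with a cell viability assay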
Description: SANGER: Inhibition of human SW780 cell growth in a cell viability assay.

BHY = format: functional, cell-based, Homo sapiens; conditions: Homo sapiens, BHY;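 further: cell growth inhibition read out by a viability assay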
Description: SANGER: Inhibition of human BHY cell growth in a cell viability assay.

BHT-101 = format: functional, cell-based, Homo sapiens; conditions: Homo sapiens, BHT-101
Description: SANGER: Inhibition of human BHT-101 cell growth in a cell viability assay.

VMRC-RCZ = format: functional, cell-based; conditions: Homo sapiens;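 further: growth inhibition measured with a cell viability assay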
Description: SANGER: Inhibition of human VMRC-RCZ cell growth in a cell viability assay.

MZ7-mel = format: functional, cell-based, Homo sapiens; conditions: Homo sapiens, MZ7-mel;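 further: growth inhibition of human MZ7-mel cells, measured by a cell viability assay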
Description: SANGER: Inhibition of human MZ7-mel cell growth in a cell viability assay.

TE-10 = format: functional, cell-based, Homo sapiens; conditions: Homo sapiens, TE-10;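 further: growth inhibition of TE-10 cells, measured by a cell viability assay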
Description: SANGER: Inhibition of human TE-10 cell growth in a cell viability assay.

RKO = format: functional, cell-based, Homo sapiens; conditions: Homo sapiens, RKO;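 further: growth inhibition of human RKO cells, read out with a cell viability assay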
Description: SANGER: Inhibition of human RKO cell growth in a cell viability assay.

NCI-H747 = format: functional, cell-based; conditions: Homo sapiens;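 further: growth inhibition of human NCI-H747 cells, read out by a cell viability assay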
Description: SANGER: Inhibition of human NCI-H747 cell growth in a cell viability assay.

KALS-1 = format: functional, cell-based, Homo sapiens; conditions: Homo sapiens, KALS-1;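 further: growth inhibition of KALS-1 cells, determined with a cell viability assay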
Description: SANGER: Inhibition of human KALS-1 cell growth in a cell viability assay.

LB771-HNC = format: functional, cell-based, Homo sapiens; conditions: Homo sapiens, LB771-HNC;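 further: growth inhibition of LB771-HNC human cells, read out with a cell viability assay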
Description: SANGER: Inhibition of human LB771-HNC cell growth in a cell viability assay.

Detroit 562 = format: functional, cell-based, Homo sapiens; conditions: Homo sapiens, Detroit 562;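 further: growth inhibition of human Detroit 562 cells, read out by a cell viability assay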
Description: SANGER: Inhibition of human Detroit562 cell growth in a cell viability assay.

RT-112 = format: functional, cell-based, Homo sapiens; conditions: Homo sapiens, RT-112
Description: SANGER: Inhibition of human RT-112 cell growth in a cell viability assay.

SF-268 = format: functional, cell-based, Homo sapiens; conditions: Homo sapiens, SF-268;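 further: growth inhibition of SF-268 cells determined with a cell viability assay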
Description: SANGER: Inhibition of human SF268 cell growth in a cell viability assay.

KOSC-2 = format: functional, cell-based, Homo sapiens; conditions: Homo sapiens, KOSC-2;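 further: growth inhibition of KOSC-2 cells, read out by a cell viability assay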
Description: SANGER: Inhibition of human KOSC-2 cell growth in a cell viability assay.

GAK = format: functional, cell-based, Homo sapiens; conditions: Homo sapiens, GAK;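 further: cell growth inhibition read out by a cell viability assay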
Description: SANGER: Inhibition of human GAK cell growth in a cell viability assay.

ONS-76 = format: functional, cell-based, Homo sapiens; conditions: Homo sapiens, ONS-76;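 further: growth inhibition of human ONS-76 cells, read out with a cell viability assay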
Description: SANGER: Inhibition of human ONS-76 cell growth in a cell viability assay.

K5 = format: functional, cell-based, Homo sapiens; conditions: Homo sapiens, K5
Description: SANGER: Inhibition of human K5 cell growth in a cell viability assay.

MKN-28 = format: functional, cell-based, Homo sapiens; conditions: Homo sapiens, MKN-28;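 further: cell viability assay read-out, IC50 reflects suppression of growth of human MKN-28 cells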
Description: SANGER: Inhibition of human MKN28 cell growth in a cell viability assay.

LNCaP-Clone-FGC = format: functional, cell-based, Homo sapiens; conditions: Homo sapiens, LNCaP-Clone-FGC
Description: SANGER: Inhibition of human LNCaP-Clone-FGC cell growth in a cell viability assay.

ES3 = format: functional, cell-based, Homo sapiens; conditions: Homo sapiens, ES3;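 further: growth inhibition of ES3 cells, read out with a cell viability assay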
Description: SANGER: Inhibition of human ES3 cell growth in a cell viability assay.

RPMI-7951 = format: functional, cell-based, Homo sapiens; conditions: Homo sapiens, RPMI-7951
Description: SANGER: Inhibition of human RPMI-7951 cell growth in a cell viability assay.

JAR = format: functional, cell-based, Homo sapiens; conditions: Homo sapiens, JAR;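 further: growth inhibition of human JAR cells determined with a cell viability assay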
Description: SANGER: Inhibition of human JAR cell growth in a cell viability assay.

CAS-1 = format: functional, cell-based, Homo sapiens; conditions: Homo sapiens, CAS-1;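 further: growth inhibition of CAS-1 cells, measured with a cell viability assay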
Description: SANGER: Inhibition of human CAS-1 cell growth in a cell viability assay.

FTC-133 = format: functional, cell-based, Homo sapiens; conditions: Homo sapiens, FTC-133
COLO-678 = format: functional, cell-based, Homo sapiens; conditions: Homo sapiens, COLO-678
Description: SANGER: Inhibition of human COLO-678 cell growth in a cell viability assay.

SCC-9 = format: functional, cell-based, Homo sapiens; conditions: Homo sapiens, SCC-9;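 further: Read-out is a cell viability assay, with values giving inhibition of cell growth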
Description: SANGER: Inhibition of human SCC-9 cell growth in a cell viability assay.

NCI-H510A = format: functional, cell-based; conditions: Homo sapiens;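 further: growth inhibition of NCI-H510A cells, read out with a cell viability assay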
Description: SANGER: Inhibition of human NCI-H510A cell growth in a cell viability assay.

CAL-85-1 = format: functional, cell-based; conditions: Homo sapiens;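 further: growth inhibition of human CAL-85-1 cells, read out with a cell viability assay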
Description: SANGER: Inhibition of human CAL-85-1 cell growth in a cell viability assay.

MDA-MB-453 = format: functional, cell-based, Homo sapiens; conditions: Homo sapiens, MDA-MB-453
Description: SANGER: Inhibition of human MDA-MB-453 cell growth in a cell viability assay.

LS-123 = format: functional, cell-based, Homo sapiens; conditions: Homo sapiens, LS-123
Description: SANGER: Inhibition of human LS-123 cell growth in a cell viability assay.

KY821 = format: functional, cell-based; conditions: Homo sapiens;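 further: growth inhibition of human KY821 cells, read out by a cell viability assay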
Description: SANGER: Inhibition of human KY821 cell growth in a cell viability assay.

Cn1cc(C2=C(c3ccc(Cl)cc3Cl)C(=O)NC2=O)c2ccccc21 [SB-216763]
IC50 (NOMO-1): > 10000 nM | IC50 (AM-38): > 10000 nM | IC50 (MKN-45): > 10000 nM | IC50 (KG-1): > 10000 nM | IC50 (Capan-2): > 10000 nM | IC50 (NCI-H2170): > 10000 nM | IC50 (A 172): > 10000 nM | IC50 (KS-1): > 10000 nM | IC50 (KGN): > 10000 nM | IC50 (MDA-MB-361): > 10000 nM | IC50 (SAS): > 10000 nM | IC50 (T47D): > 10000 nM | IC50 (SCC-25): > 10000 nM | IC50 (NKM-1): > 10000 nM | IC50 (P12-Ichikawa): > 10000 nM | IC50 (RXF 393): > 10000 nM | IC50 (PC-14): > 10000 nM | IC50 (RH-1): > 10000 nM | IC50 (NCI-H23): > 10000 nM | IC50 (ES5): > 10000 nM | IC50 (KE-37): > 10000 nM | IC50 (SW780): > 10000 nM | IC50 (BHY): > 10000 nM | IC50 (BHT-101): > 10000 nM | IC50 (VMRC-RCZ): > 10000 nM | IC50 (MZ7-mel): > 10000 nM | IC50 (TE-10): > 10000 nM | IC50 (RKO): > 10000 nM | IC50 (NCI-H747): > 10000 nM | IC50 (KALS-1): > 10000 nM | IC50 (LB771-HNC): > 10000 nM | IC50 (Detroit 562): > 10000 nM | IC50 (RT-112): > 10000 nM | IC50 (SF-268): > 10000 nM | IC50 (KOSC-2): > 10000 nM | IC50 (GAK): > 10000 nM | IC50 (ONS-76): > 10000 nM | IC50 (K5): 1540 nM | IC50 (MKN-28): > 10000 nM | IC50 (LNCaP-Clone-FGC): > 10000 nM | IC50 (ES3): > 10000 nM | IC50 (RPMI-7951): > 10000 nM | IC50 (JAR): 1210 nM | IC50 (CAS-1): > 10000 nM | IC50 (FTC-133): > 10000 nM | IC50 (COLO-678): > 10000 nM | IC50 (SCC-9): > 10000 nM | IC50 (NCI-H510A): > 10000 nM | IC50 (CAL-85-1): > 10000 nM | IC50 (MDA-MB-453): > 10000 nM | IC50 (LS-123): > 10000 nM

C=CCNC1=C2C[C@@H](C)C[C@H](OC)[C@H](O)[C@@H](C)/C=C(\C)[C@H](OC(N)=O)[C@@H](OC)/C=C\C=C(/C)C(=O)NC(=CC1=O)C2=O [TANESPIMYCIN]
IC50 (NOMO-1): > 1000 nM | IC50 (AM-38): 208 nM | IC50 (KY821): 299 nM | IC50 (MKN-45): 82.2 nM | IC50 (KG-1): > 1000 nM | IC50 (Capan-2): 193 nM | IC50 (NCI-H2170): 175 nM | IC50 (A 172): 210 nM | IC50 (KS-1): 13.6 nM | IC50 (KGN): > 1000 nM | IC50 (MDA-MB-361): 15 nM | IC50 (SAS): 127 nM | IC50 (T47D): > 1000 nM | IC50 (SCC-25): 246 nM | IC50 (NKM-1): 107 nM | IC50 (P12-Ichikawa): > 1000 nM | IC50 (RXF 393): 120 nM | IC50 (PC-14): 132 nM | IC50 (RH-1): > 1000 nM | IC50 (NCI-H23): 26.6 nM | IC50 (ES5): > 1000 nM | IC50 (KE-37): > 1000 nM | IC50 (SW780): 42 nM | IC50 (BHY): 237 nM | IC50 (BHT-101): > 1000 nM | IC50 (VMRC-RCZ): 138 nM | IC50 (MZ7-mel): 176 nM | IC50 (TE-10): 414 nM | IC50 (RKO): 118 nM | IC50 (NCI-H747): 242 nM | IC50 (KALS-1): 114 nM | IC50 (LB771-HNC): > 1000 nM | IC50 (Detroit 562): 42.4 nM | IC50 (RT-112): 140 nM | IC50 (SF-268): 643 nM | IC50 (KOSC-2): 177 nM | IC50 (GAK): 136 nM | IC50 (ONS-76): > 1000 nM | IC50 (K5): 244 nM | IC50 (MKN-28): 666 nM | IC50 (LNCaP-Clone-FGC): 800 nM | IC50 (ES3): 591 nM | IC50 (RPMI-7951): 7.17 nM | IC50 (JAR): > 1000 nM | IC50 (CAS-1): > 1000 nM | IC50 (FTC-133): 165 nM | IC50 (COLO-678): 240 nM | IC50 (SCC-9): 167 nM | IC50 (CAL-85-1): > 1000 nM | IC50 (MDA-MB-453): 672 nM | IC50 (LS-123): > 1000 nM
